Test results as given in US20230069804A1, “METHODS AND COMPOSITIONS FOR MODULATING SPLICING” (SkyHawk Therapeutics, Inc., priority 2019, published 2023).
Several values for one entry are separate records, joined by “and”; a condition that tells them apart may be missing. Equal entries are not always repeated. Where two headings read alike, the source gives them in different places.

How the values were obtained:
[1] = test system: MDR1-MDCK cell monolayers; assay: MDCK-MDR1 permeability assay (BBB penetration potential); type: in vitro ADME; details: 5 μM, 120 minutes; for MDCK MDRP1 Efflux Ratio: Papp (B-to-A)/Papp (A-to-B), separated enantiomers, told apart by chiral retention time; for MDCK-MDR1: % Recov A-B / MDCK-MDR1: % Recov B-A: pH 7.4
Procedure: (§1) Each determination is performed in duplicate. […] Analytical conditions are outlined below.
(§2) Papp=(dCr/dt)×Vr/(A×CA) (1)

[2] = test system: MDR1; assay: as above; type: in vitro ADME; details: dog; for Papp A→B at 120 min, 5 μM / Papp B→A at 120 min, 5 μM: MDCK-MDR1, pH 7.4
Procedure: as §1, §2

[3] = MDCK-MDR1, pH 7.4, Papp (B-to-A)/Papp (A-to-B), 5 μM, 120 minutes, separated enantiomers, told apart by chiral retention time, read-out: MDCK MDRP1 Efflux Ratio
[4] = MDCK-MDR1, pH 7.4, Papp (B-to-A)/Papp (A-to-B), read-out: MDCK-MDR1: Efflux

## CN(c1nnc(-c2ccc(-c3cnn(C)c3)cc2O)s1)[C@@H]1C[C@H]2CCC[C@H](N2)[C@@H]1F (racemic) [1A/1B, 2-(5-(((1S,2S,3R,5R)-2-fluoro-9-azabicyclo[3.3.1]nonan-3-yl)(methyl)amino)-1,3,4-thiadiazol-2-yl)-5-(1-methyl-1H-pyrazol-4-yl)phenol and 2-(5-(((1R,2R,3S,5S)-2-fluoro-9-azabicyclo[3.3.1]nonan-3-yl)(methyl)amino)-1,3,4-thiadiazol-2-yl)-5-(1-methyl-1H-pyrazol-4-yl)phenol]
[1]
  MDCK MDRP1 Efflux Ratio: 6
[2]; [3]
  efflux ratio at 120 min, 5 μM: 5.5

## COc1cc(-c2ccc(-c3nnc(N(C4CC4)[C@@H]4C[C@H]5CC[C@H](N5)[C@@H]4F)s3)c(O)c2)cc(F)n1 (racemic) [2A/2B, 2-(5-(cyclopropyl((1S,2S,3R,5R)-2-fluoro-8-azabicyclo[3.2.1]octan-3-yl)amino)-1,3,4-thiadiazol-2-yl)-5-(2-fluoro-6-methoxypyridin-4-yl)phenol and 2-(5-(cyclopropyl((1R,2R,3S,5S)-2-fluoro-8-azabicyclo[3.2.1]octan-3-yl)amino)-1,3,4-thiadiazol-2-yl)-5-(2-fluoro-6-methoxypyridin-4-yl)phenol]
[2]; [3]
  efflux ratio at 120 min, 5 μM: 5

## CN(c1nnc(-c2ccc(-c3cnn(C)c3)cc2O)s1)[C@H]1C[C@@H]2CC[C@@H](N2)[C@H]1F (racemic) [3A/3B, 2-(5-(((1R,2R,3S,5S)-2-fluoro-8-azabicyclo[3.2.1]octan-3-yl)(methyl)amino)-1,3,4-thiadiazol-2-yl)-5-(1-methyl-1H-pyrazol-4-yl)phenol]
[1]
  MDCK MDRP1 Efflux Ratio: 5.3
[2]; [3]
  efflux ratio at 120 min, 5 μM: 4.3

## COc1cc(-c2ccc(-c3nnc(N(C)[C@@H]4C[C@H]5CC[C@H](N5)[C@@H]4F)s3)c(O)c2)ncn1 (racemic) [5A/5B, 2-(5-{[(1S,2S,3R)-2-fluoro-8-azabicyclo[3.2.1]octan-3-yl](methyl)amino}-1,3,4-thiadiazol-2-yl)-5-(6-methoxypyrimidin-4-yl)phenol and 2-(5-{[(2R,3S,5S)-2-fluoro-8-azabicyclo[3.2.1]octan-3-yl](methyl)amino}-1,3,4-thiadiazol-2-yl)-5-(6-methoxypyrimidin-4-yl)phenol]
[2]; [3]
  efflux ratio at 120 min, 5 μM: 2

## CN(c1nnc(-c2ccc(-c3cn[nH]c3)cc2O)s1)[C@H]1C[C@@H]2CC[C@@H](N2)[C@H]1F (racemic) [7A/7B, 2-(5-{[(1S,2S,3R,5R)-2-fluoro-8-azabicyclo[3.2.1]octan-3-yl](methyl)amino}-1,3,4-thiadiazol-2-yl)-5-(1H-pyrazol-4-yl)phenol and 2-(5-{[(1R,2R,3S,5S)-2-fluoro-8-azabicyclo[3.2.1]octan-3-yl](methyl)amino}-1,3,4-thiadiazol-2-yl)-5-(1H-pyrazol-4-yl)phenol]
[2]; [3]
  efflux ratio at 120 min, 5 μM: 12

## CN(c1nnc(-c2ccc(-c3cc(=O)n(C)cn3)cc2O)s1)[C@@H]1C[C@H]2CC[C@H](N2)[C@@H]1F (racemic) [8A/8B, 6-[4-(5-{[(1S,2S,3R)-2-fluoro-8-azabicyclo[3.2.1]octan-3-yl](methyl)amino}-1,3,4-thiadiazol-2-yl)-3-hydroxyphenyl]-3-methyl-3,4-dihydropyrimidin-4-one and 6-[4-(5-{[(2R,3S,5S)-2-fluoro-8-azabicyclo[3.2.1]octan-3-yl](methyl)amino}-1,3,4-thiadiazol-2-yl)-3-hydroxyphenyl]-3-methyl-3,4-dihydropyrimidin-4-one]
[1]
  MDCK MDRP1 Efflux Ratio: 31
[2]; [3]
  efflux ratio at 120 min, 5 μM: 21

## CN(c1nnc(-c2cc(F)c(-c3cnn(C)c3)cc2O)s1)[C@H]1C[C@@H]2CC[C@@H](N2)[C@H]1F (racemic) [9A/9B, 4-fluoro-2-(5-{[(1S,2S,3R,5R)-2-fluoro-8-azabicyclo[3.2.1]octan-3-yl](methyl)amino}-1,3,4-thiadiazol-2-yl)-5-(1-methyl-1H-pyrazol-4-yl)phenol and 4-fluoro-2-(5-{[(1R,2R,3S,5S)-2-fluoro-8-azabicyclo[3.2.1]octan-3-yl](methyl)amino}-1,3,4-thiadiazol-2-yl)-5-(1-methyl-1H-pyrazol-4-yl)phenol]
[1]
  MDCK MDRP1 Efflux Ratio: 6
[2]; [3]
  efflux ratio at 120 min, 5 μM: 5

## COc1cc(-c2ccc(-c3nnc(N(C)[C@@H]4C[C@H]5CC[C@H](N5)[C@@H]4F)s3)c(O)c2)ccn1 (racemic) [11A/11B, 2-(5-{[(1S,2S,3R)-2-fluoro-8-azabicyclo[3.2.1]octan-3-yl](methyl)amino}-1,3,4-thiadiazol-2-yl)-5-(2-methoxypyridin-4-yl)phenol and 2-(5-{[(2R,3S,5S)-2-fluoro-8-azabicyclo[3.2.1]octan-3-yl](methyl)amino}-1,3,4-thiadiazol-2-yl)-5-(2-methoxypyridin-4-yl)phenol]
[2]; [3]
  efflux ratio at 120 min, 5 μM: 2

## CN(c1nnc(-c2ccc(-c3ccn(CF)c(=O)c3)cc2O)s1)[C@@H]1C[C@H]2CC[C@H](N2)[C@@H]1F (racemic) [15A/15B, 4-[4-(5-{[(1S,2S,3R)-2-fluoro-8-azabicyclo[3.2.1]octan-3-yl](methyl)amino}-1,3,4-thiadiazol-2-yl)-3-hydroxyphenyl]-1-(fluoromethyl)-1,2-dihydropyridin-2-one and 4-[4-(5-{[(2R,3S,5S)-2-fluoro-8-azabicyclo[3.2.1]octan-3-yl](methyl)amino}-1,3,4-thiadiazol-2-yl)-3-hydroxyphenyl]-1-(fluoromethyl)-1,2-dihydropyridin-2-one]
[1]
  MDCK MDRP1 Efflux Ratio: 66
[2]; [3]
  efflux ratio at 120 min, 5 μM: 40

## CN(c1nnc(-c2ccc(-c3cnn(C)c3)cc2O)s1)[C@H]1C[C@@H]2CC[C@H]([C@H]1F)N2C (racemic) [21A/21B, 2-(5-{[(1S,2S,3R,5R)-2-fluoro-8-methyl-8-azabicyclo[3.2.1]octan-3-yl](methyl)amino}-1,3,4-thiadiazol-2-yl)-5-(1-methyl-1H-pyrazol-4-yl)phenol and 2-(5-{[(1R,2R,3S,5S)-2-fluoro-8-methyl-8-azabicyclo[3.2.1]octan-3-yl](methyl)amino}-1,3,4-thiadiazol-2-yl)-5-(1-methyl-1H-pyrazol-4-yl)phenol]
[1]
  MDCK MDRP1 Efflux Ratio: 4
[2]; [3]
  efflux ratio at 120 min, 5 μM: 3

## CN(c1nnc(-c2ccc(-c3cn[nH]c3)cc2O)s1)[C@H]1C[C@@H]2CC[C@H]([C@H]1F)N2C (racemic) [23A/23B, 2-(5-{[(1S,2S,3R,5R)-2-fluoro-8-methyl-8-azabicyclo[3.2.1]octan-3-yl](methyl)amino}-1,3,4-thiadiazol-2-yl)-5-(1H-pyrazol-4-yl)phenol and 2-(5-{[(1R,2R,3S,5S)-2-fluoro-8-methyl-8-azabicyclo[3.2.1]octan-3-yl](methyl)amino}-1,3,4-thiadiazol-2-yl)-5-(1H-pyrazol-4-yl)phenol]
[1]
  MDCK MDRP1 Efflux Ratio: 9
[2]; [3]
  efflux ratio at 120 min, 5 μM: 7

## CN(c1nnc(-c2cc(F)c(-c3cn[nH]c3)cc2O)s1)[C@H]1C[C@@H]2CC[C@H]([C@H]1F)N2C (racemic) [24A/24B, 4-fluoro-2-(5-{[(1S,2S,3R,5R)-2-fluoro-8-methyl-8-azabicyclo[3.2.1]octan-3-yl](methyl)amino}-1,3,4-thiadiazol-2-yl)-5-(1H-pyrazol-4-yl)phenol and 4-fluoro-2-(5-{[(1R,2R,3S,5S)-2-fluoro-8-methyl-8-azabicyclo[3.2.1]octan-3-yl](methyl)amino}-1,3,4-thiadiazol-2-yl)-5-(1H-pyrazol-4-yl)phenol]
[1]
  MDCK MDRP1 Efflux Ratio: 7
[2]; [3]
  efflux ratio at 120 min, 5 μM: 6

## CN(c1nnc(-c2ccc(-c3cnn(C)c3)cc2O)s1)[C@H]1C[C@@H]2CC[C@H]([C@H]1F)N2C (racemic) [25A/25B, 2-(5-{[(1S,2S,3R,5R)-2-fluoro-8-methyl-8-azabicyclo[3.2.1]octan-3-yl](methyl)amino}-1,3,4-thiadiazol-2-yl)-5-(1-methyl-1H-pyrazol-4-yl)phenol and 2-(5-{[(1R,2R,3S,5S)-2-fluoro-8-methyl-8-azabicyclo[3.2.1]octan-3-yl](methyl)amino}-1,3,4-thiadiazol-2-yl)-5-(1-methyl-1H-pyrazol-4-yl)phenol]
[1]
  MDCK MDRP1 Efflux Ratio: 3 and 4

## CN(c1nnc(-c2ccc(-c3ccn(C)c(=O)c3)cc2O)s1)[C@@H]1C[C@H]2CC[C@H](N2)[C@@H]1F (single isomer, unassigned) [Compound E-4A]
[1]
  MDCK-MDR1: % Recov A-B: 93%
  MDCK-MDR1: % Recov B-A: 101%
[2]; [4]
  efflux ratio at 120 min, 5 μM: 54
[2]; 5 μM, 120 minutes
  Papp A→B at 120 min, 5 μM: 1.03 ×10⁻⁶ cm/s
  Papp B→A at 120 min, 5 μM: 55.9 ×10⁻⁶ cm/s

## CN(c1nnc(-c2ccc(-c3ccn(C)c(=O)c3)cc2O)s1)[C@H]1C[C@@H]2CC[C@@H](N2)[C@H]1F (single isomer, unassigned) [Compound E-4B]
[1]
  MDCK-MDR1: % Recov A-B: 115%
  MDCK-MDR1: % Recov B-A: 125%
[2]; [4]
  efflux ratio at 120 min, 5 μM: 40
[2]; 5 μM, 120 minutes
  Papp A→B at 120 min, 5 μM: 1.81 ×10⁻⁶ cm/s
  Papp B→A at 120 min, 5 μM: 71.4 ×10⁻⁶ cm/s

## COc1cc(-c2ccc(-c3nnc(N(C)[C@H]4C[C@@H]5CC[C@@H](N5)[C@H]4F)s3)c(O)c2)ncn1 (single isomer, unassigned) [Compound E-5B]
[1]
  MDCK-MDR1: % Recov A-B: 37%
  MDCK-MDR1: % Recov B-A: 58%
[2]; [4]
  efflux ratio at 120 min, 5 μM: 2
[2]; 5 μM, 120 minutes
  Papp A→B at 120 min, 5 μM: 6.59 ×10⁻⁶ cm/s
  Papp B→A at 120 min, 5 μM: 9.86 ×10⁻⁶ cm/s

## CN(c1nnc(-c2cc(F)c(-c3cn[nH]c3)cc2O)s1)[C@@H]1C[C@H]2CC[C@H](N2)[C@@H]1F (single isomer, unassigned) [Compound E-6A]
[1]
  MDCK-MDR1: % Recov A-B: 59%
  MDCK-MDR1: % Recov B-A: 80%
[2]; [4]
  efflux ratio at 120 min, 5 μM: 15
[2]; 5 μM, 120 minutes
  Papp A→B at 120 min, 5 μM: 2.33 ×10⁻⁶ cm/s
  Papp B→A at 120 min, 5 μM: 35.2 ×10⁻⁶ cm/s

## CN(c1nnc(-c2ccc(-c3cn[nH]c3)cc2O)s1)[C@H]1C[C@@H]2CC[C@@H](N2)[C@H]1F (single isomer, unassigned) [Compound E-7A]
[1]
  MDCK-MDR1: % Recov A-B: 99%
  MDCK-MDR1: % Recov B-A: 102%
[2]; [4]
  efflux ratio at 120 min, 5 μM: 12
[2]; 5 μM, 120 minutes
  Papp A→B at 120 min, 5 μM: 5.22 ×10⁻⁶ cm/s
  Papp B→A at 120 min, 5 μM: 60.6 ×10⁻⁶ cm/s
